Assays:
[1] = system: rat isolated bladder; assay: Test Example 3: effect on electrical field stimulation-induced contraction in rat isolated bladder; conditions: 10 μM test substance; AUC of contraction, value before treatment = 100%; SD female rat bladder
Protocol: Test Example 3: Effect on Electrical Field Stimulation-Induced Contraction in Rat Isolated Bladder
As an effect on the nerve stimulation-dependent bladder contraction in in vitro, the effect of the Example compounds of the present invention in the electrical field stimulation-induced contraction of the rat isolated bladder was measured by the following method. That is, a bladder specimen having a width of about 2 mm and a length of about 10 mm in the longitudinal direction from the bladder isolated from a Sprague-Dawley (SD) female rat (Japan SLC, Inc.) was prepared. The prepared bladder specimen was suspended in an organ bath filled with 10 mL of a Krebs-Henseleite solution. The Krebs-Henseleite solution was aerated at 95% 02 and 5% CO2, and kept at 37° C. After carrying out stabilization at an initial tension of 1 g, the contraction was caused twice with 60 mM KCl. After stabilization of the specimen with a Krebs-Henseleite solution, the contraction was caused by carrying out electrical field stimulation at 20 V with an electrical stimulation device (Nihon Kohden) (a stimulation frequency of 8 Hz, a pulse width of 0.3 msec, and a stimulation time of 10 seconds). By repeating the transmural electrical stimulation at an interval of 2 minutes, a voltage was adjusted to obtain a contraction height of approximately 50% of the contractile response at 20 V. After the contraction by electrical field stimulation had been stabilized, 10 μL of the test substances dissolved in 100% dimethyl sulfoxide in advance (final concentrations of 3 μM, 10 μM, and 30 μM) was added thereto. The test substances were cumulatively administered at the following concentrations after the low-concentration contractile response had been stabilized. The response was taken into a personal computer through a PowerLab (registered trademark) (AD Instruments, Inc.), and analyzed by LabChart (registered trademark) (AD Instruments, Inc.). When the area under the response (area under curve, AUC) in each contraction response was calculated and the value before treatment with the test substance was taken as 100%, the enhancement rate (% of pre) of the isolated bladder contractions after treatment with the test substance was calculated.

[2] = target: human muscarinic M3 receptor (Homo sapiens, UniProt P20309); assay: Test Example 1: muscarinic M3 receptor positive allosteric modulator activity (shift of carbachol concentration-response curve, intracellular Ca2+, FLIPR); conditions: carbachol EC50 without / with test substance, CHO-K1 cells expressing human M3; for muscarinic M3 receptor-positive allosteric modulator activity, 1 μM (-fold shift): test substance 1 μM; for muscarinic M3 receptor-positive allosteric modulator activity, 10 μM (-fold shift): test substance 10 μM
Source text: Test Example 1: Evaluation of Muscarinic M3 Receptor Positive Allosteric Modulator Activity
a) Construction of Vector Expressing Human Muscarinic M3 Receptor
A human muscarinic M3 receptor gene (GenBank Accession No.: NM_000740.2) was introduced into an expression vector pcDNA3.1™ (Life Technologies).
b) Construction of Cells Stably Expressing Human Muscarinic M3 Receptor
A vector expressing a human muscarinic M3 receptor was introduced into a CHO—K1 cell (ATCC No.: CCL-61). The introduction was carried out according to the attached instructions, using a transfection reagent, Lipofectoamine (registered trademark) 2000 Reagent (Life Technologies). The cells were incubated in an alpha Modified Eagle Minimum Essential Medium (α-MEM) including 2 mM glutamine, 10% fetal bovine serum, and 2.0 mg/mL Geneticin (registered trademark) (Life Technologies) for 4 weeks to acquire a drug-resistant clone.
c) Measurement of Intracellular Ca^2+ Concentration
The cells obtained in b) above were suspended in an α-MEM including 2 mM glutamine, 10% fetal bovine serum, and 0.2 mg/mL Geneticin (registered trademark) to the amount from 1.2 to 1.5×10^4 cells/well the day before the experiment, dispensed into a 384-well plate (Model No. 355962, BD Biosciences), and incubated overnight at 37° C. and 5% CO2. The medium was replaced with a loading buffer (an assay buffer (Hank's balanced salt solution (HBSS), 1 g/L BSA, 20 mM HEPES (pH 7.5), and 2.5 mM probenecid), including 3.1 μM Fluo 4-AM (Dojindo Laboratories) and incubated for about 2 hours at room temperature. Thereafter, the cells were washed with a plate washer ELx405™ (BIO-TEK Instrument, Inc.) set with the assay buffer, and set in an intracellular Ca^2+ concentration measuring system (FLIPR^tetra (registered trademark), Molecular Device Co.). The test substances (final concentration of 1 μM or 10 μM) and carbachol (Sigma, final concentration of 0.0024 nM to 10 μM) which had each been dissolved in the assay buffer in advance were set in a FLIPR^tetra (registered trademark). The test substances were added to the cells in the device and after about 5 minutes, carbachol was added to the cells. An increase rate of the intracellular Ca^2+ concentration by carbachol was measured (excitement wavelength of 470 nm to 495 nm and a fluorescence wavelength of 515 nm to 575 nm).
For the muscarinic M3 receptor-positive allosteric modulator activity, a shift toward a lower concentration side of a carbachol concentration-response curve by the test substance was used as an index. […] For example, when the EC50 value of carbachol in the absence of the test substance was 0.1 μM and the EC50 value of carbachol in the presence of the test substance was 0.01 μM, the value of the muscarinic M3 receptor-positive allosteric modulator activity becomes 10, showing that the test substance causes a 10-fold shift in the EC50 value toward to the low concentration side.

[3] = system: pelvic nerve stimulation-induced elevation of intravesical pressure; assay: Test Example 4: effect on pelvic nerve stimulation-induced elevation of intravesical pressure in anesthetized rats; format: in vivo, rat; conditions: 3 mg/kg intravenous; maximum effect within one hour; anesthetized SD female rats; pre-treatment = 100%
Protocol: Test Example 4: Effect on Pelvic Nerve Stimulation-Induced Elevation of Intravesical Pressure in Anesthetized Rats
The effect of the Example compounds of the present invention in the pelvic nerve electrical stimulation-induced elevation of intravesical pressure using rats as an action of nerve stimulation-dependent bladder contraction in vivo was measured by the following method. That is, SD female rats (Japan SLC, Inc.) were used and its lower abdomen was dissected at the midline under pentobarbital anesthesia (50 mg/kg ip). After ligating and cutting the ureter on both sides, a cannula (PE-50) for measuring the intravesical pressure was inserted into the bladder from the external urethral opening and fixed by a clip. After injecting about 200 μL of saline through the cannula that had been inserted into the bladder, the other side was connected to a pressure transducer to measure the intravesical pressure. Under a stereoscopic microscope observation, the pelvic nerve in the vicinity of the bladder was peeled and an electrode for nerve stimulation (unique Medical) was placed. The abdominal cavity was filled with mineral oil (MP BIOMEDICALS). After placing in a post-operative stabilization period, the pelvic nerve was subjected to electrical stimulation (stimulation voltage: 10 V, stimulation frequency: 8 Hz, pulse width: 0.3 msec, and stimulation time: 10 seconds) to elicit the elevation of intravesical pressure, using an electrical stimulator (Nihon Kohden). By repeating the electrical stimulation at an interval of 2 minutes while adjusting the voltage, the voltage was adjusted to elicit about 50% to 70% elevation of intravesical pressure elicited at 10 V. Thereafter, by repeating the electrical stimulation at an interval of 10 minutes, the increase in the intravesical pressure by electrical stimulation was stabilized three times or more, and the test substance (an administration amount of 3 mg/kg) was then administered from the catheter detained in the vein at a volume of 1 mL/kg, thus measuring an effect of the elevation of the intravesical pressure of the test substance for 1 hour. The test substance was dissolved in water supplemented with 10% dimethylsulfoxide and 10% Cremophor.
The response was applied to a personal computer through a PowerLab (registered trademark) and analyzed by LabChart (registered trademark). The AUC of each elevation of the intravesical pressure was calculated, the intravesical pressure elevation rate (% of pre) after the treatment with the test substance was calculated by taking an average value of the values measured three times before the treatment with the test substance as 100%, and the maximum effect during a period within one hour after administration of the compound was considered as the effect of the test substance.
The elevation rates (% of pre) of the intravesical pressure when some Example compounds were administered at 3 mg/kg are shown in Table 4.

Chain of human muscarinic M3 receptor (P20309 whole entry): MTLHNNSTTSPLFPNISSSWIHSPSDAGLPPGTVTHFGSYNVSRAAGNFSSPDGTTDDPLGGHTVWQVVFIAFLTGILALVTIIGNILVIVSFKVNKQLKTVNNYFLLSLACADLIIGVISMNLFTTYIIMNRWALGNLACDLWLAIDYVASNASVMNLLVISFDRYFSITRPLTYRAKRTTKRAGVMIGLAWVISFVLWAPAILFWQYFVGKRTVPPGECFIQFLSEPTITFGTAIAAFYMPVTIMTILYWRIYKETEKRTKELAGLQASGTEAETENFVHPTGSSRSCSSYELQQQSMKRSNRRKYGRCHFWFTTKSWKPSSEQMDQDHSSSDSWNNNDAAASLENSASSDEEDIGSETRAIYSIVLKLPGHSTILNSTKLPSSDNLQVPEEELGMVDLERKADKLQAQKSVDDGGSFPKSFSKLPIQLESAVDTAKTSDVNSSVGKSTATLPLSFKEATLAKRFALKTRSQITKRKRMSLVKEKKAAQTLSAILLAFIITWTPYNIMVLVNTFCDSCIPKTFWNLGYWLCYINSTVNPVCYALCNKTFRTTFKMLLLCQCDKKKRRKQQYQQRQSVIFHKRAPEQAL

SMILES | Enhancement rate (% of pre) of isolated bladder contractions [1] | muscarinic M3 receptor-positive allosteric modulator activity, 1 μM (-fold shift) [2] | muscarinic M3 receptor-positive allosteric modulator activity, 10 μM (-fold shift) [2] | Increase rate (% of pre) of intravesical pressure [3]
C[C@@H]1CCCN1Cc1sc(NC(=O)c2cnc(N3CCN(CCC(=O)[O-])CC3)cn2)nc1-c1cc(C#N)cc(C(F)(F)F)c1.[Na+] [Example 34] | 137 % of pre | 18 -fold shift | 116 -fold shift | 134 % of pre
CCC[C@@H]1CCCN1Cc1sc(NC(=O)c2cnc(N3CCN(CCC(=O)[O-])CC3)cn2)nc1-c1cccc(C(F)(F)F)c1.[Na+] [Example 124] | 132 % of pre | 28 -fold shift | 101 -fold shift | 143 % of pre
C[C@@H]1CCCN1Cc1sc(NC(=O)c2cnc(N3CCN(CCC(=O)O)C[C@H]3C)cn2)nc1-c1cc(F)cc(C(F)(F)F)c1 [Example 140] | 161 % of pre |  |  | 148 % of pre
C[C@@H]1CCCN1Cc1sc(NC(=O)c2cnc(N3CCN(CC(=O)O)C[C@H]3C)cn2)nc1-c1cc(F)cc(C(F)(F)F)c1 [Example 141] | 121 % of pre |  |  | 175 % of pre
C[C@@H]1CCCN1Cc1sc(NC(=O)c2cnc(N3CCN(CCC(=O)O)[C@@H](C)C3)cn2)nc1-c1cc(Cl)cs1 [Example 142] | 196 % of pre |  |  | 199 % of pre
CC[C@@H]1CCCN1Cc1sc(NC(=O)c2cnc(N3CCN(CCC(=O)O)[C@H](C)C3)cn2)nc1-c1cc(Cl)cs1 [Example 143] | 140 % of pre |  |  | 172 % of pre
